Measurements: a melting point compilation (Tetko et al.; mined from patent text by program, amines drawn as free bases though some values may be those of a salt)

melting point	SMILES
118 to 120 °C	Cc1cc(-c2ccc(S(N)(=O)=O)cc2)n(-c2ccc(C)c(C)c2)c1
62.5 to 63.5 °C	O=C=Nc1c(Cl)c(Cl)cc(Cl)c1Cl
167 to 168 °C	COc1ccc(C2=NN(CCCCOc3ccc(C4=NNC(=O)C4(C)C)c(F)c3F)C(=O)C2(C)C)c2cc(C(F)(F)F)sc12
186 to 188 °C	Cc1ccc(C(O)=S)cn1
270 °C	Cc1ccc2c(n1)C(=O)C(N)=C(Cl)C2=O
245 to 247 °C	Cc1c(N2CC(O)C2)c(F)cc2c(=O)c(C(=O)O)cn(-c3nc(N)c(F)cc3F)c12
159 to 160 °C	C=C(C(=O)c1cc(OC)c(OC)c(-c2cccs2)c1)c1ccc(C(=O)O)cc1
216 to 217 °C	NC(=O)c1cc2ccccc2cc1O
164 to 166 °C	O=c1nc(-c2cccc(S(=O)CCCc3ccccc3)n2)sc2ccccc12 (stereo unspecified)
215 °C	O=C(O)c1ccc(SCc2c(O[C@H](Cn3ccnc3)c3ccccc3)ccc3c2CCCC3=O)cc1
163 to 164 °C	Cc1nccn1-c1nc(-c2ccc(Cl)cc2)c(CCC#N)o1
99.5 to 102 °C	COc1ccc(-c2nc3ccccc3o2)cc1
238 °C	CNc1cc(-n2cc(C(=O)O)c(=O)c3cc(F)c(F)c(C)c32)c(F)cc1F
> 300 °C	Cn1cnc2c3cccnc3n(-c3ccccc3)c(=O)c21
185 to 186 °C	CN1C(=O)CCn2nc(-c3ccc(F)cc3)c(-c3ccncc3)c21
155 to 156 °C	C=C(C(=O)OC)C(O)c1c(C)n(C(=O)OC(C)(C)C)c2ccc(C)c(O)c12 (stereo unspecified)
149 to 154 °C	CN(C)C(=O)c1ccccc1CS(N)(=O)=O
114 to 116 °C	COC(=O)c1c(Cl)cc(Cl)cc1NC(=O)CSc1ccc(N)cc1
121 to 122 °C	COc1ccc(C=O)cc1OCc1nc(-c2ccccc2)oc1C

The remaining lines, values behind:

SMILES	melting point
COc1cc(C=O)c(CCC(=O)O)c(C=O)c1O	164 to 166 °C
CC12CCC3c4ccc(C(=O)O)cc4CCC3C1CCC2C(=O)C=Cc1ccccc1 (stereo unspecified)	177 to 181 °C
COc1ccccc1CNc1ccc2cc(Nc3cccc(C(F)(F)F)n3)ccc2n1	151 °C
O=C(Nc1cccnc1Nc1ccc(CCNC[C@H](O)COc2ccc(O)cc2)cc1)c1ccccc1	97 to 99 °C
CC(C)(C)COc1cccc(C[C@@H](NC(=O)c2ccc(F)c3ccccc23)[C@@H](O)c2cccc(Cl)c2)c1 (racemic)	165 to 166 °C
O=C(NC(CO)CO)c1ccccc1-c1ccc(C(F)(F)F)cc1	141 to 143 °C
CN1CCC(c2c[nH]c(-c3ccc(F)cc3)c2-c2ccncc2)=CC1Cc1ccccc1 (stereo unspecified)	198 to 200 °C
CSc1cncc(O)c1	179 °C
CCSc1ccc2cccc(CCNC(C)=O)c2c1	65 to 66 °C
CCCC(=O)Nc1ccc(OC)c(C(C)=O)c1	113 °C
CCC1SC(N(C)C(=O)NC)=NN1C(=O)C(C)(C)C (stereo unspecified)	144 to 146 °C
CN(C)C(=O)C=CC(=O)N(C)C	130 to 131 °C
COC(=O)Nc1cc(C)c(Br)cc1I	140 to 141 °C
C[C@@H](O)C(=O)NC[C@H]1CCc2ccc(S(=O)(=O)c3ccccc3)cc2O1	130 to 132 °C
CCn1cc(C(=O)O)c(=O)c2cc(F)c(N3CCNC(c4cc(C)cs4)C3)cc21 (stereo unspecified)	230 °C
CC(C)(C)C(NC(=O)c1ccc(Cl)cc1)NC(=NC#N)Nc1cccc(Cl)c1 (stereo unspecified)	158 to 160 °C
O=C(Nc1nccs1)c1cn(CC2CC2)c2cc(Cl)ccc12	185 to 187 °C
O=C(O)C(Cc1ccccc1)Nc1ncnc(-c2ccc(OCc3ccccc3)cc2)c1CO (stereo unspecified)	114 to 117 °C
O=c1[nH]c2ncc(-c3ccc(-c4nnc[nH]4)cc3)nc2n1CCN1CCCCC1	194 to 197 °C
CCCc1c(OCCCO)ccc(C(C)=O)c1O	57 to 59 °C
O=C(O)[C@H](Cc1ccccc1)Nc1c(NC(c2ccccc2)c2ccccc2)c(=O)c1=O	187 to 188 °C
CCCc1nc(Cl)nc(NCCO)n1	87 to 88 °C
